This passage reports Ki, IC50 and EC50 results from ChEMBL document CHEMBL1129330, “Synthesis and pharmacological characterization of all sixteen stereoisomers of 2-(2'-carboxy-3'-phenylcyclopropyl)glycine. Focus on (2S,1'S,2'S,3'R)-2-(2'-carboxy-3'-phenylcyclopropyl)glycine, a novel and selective group II metabotropic glutamate receptors antagonist” (J Med Chem, 1996).

SMILES strings stand for the structures. Bounds are passed on as bounds.

For one assay, the target named is Glutamate NMDA receptor. The assay is described as follows: Binding affinity towards Ionotropic glutamate receptor NMDA. It counts as protein-complex assay.
For assay [1], the target named is Glutamate receptor ionotropic, kainate. The assay is described as follows: Binding affinity towards Ionotropic glutamate receptor kainate. The class given is protein-complex assay.
For assay [2], the target named is T1, Metabotropic glutamate receptor 2 (Homo sapiens, UniProt Q14416). The assay is described as follows: Concentration required for the half-maximal inhibition of cAMP […] in BHK cells expressing mGluR2. The class given is functional, cell-based.
Assay [3] in a line: Inhibitory concentration towards calcium/chloride-dependent glutamate transport into synaptosomes. It counts as functional, subcellular, Rattus norvegicus, Brain.
A short description of assay [4]: Inhibitory concentration towards the sodium dependent glutamate transport into synaptosomes. The class given is functional, subcellular, Brain.
In assay [5] the target is Glutamate receptor ionotropic, AMPA (Rattus norvegicus, UniProt P19490+P19491+P19492+P19493). The assay is described as follows: Binding affinity towards Ionotropic glutamate receptor AMPA. The class given is protein-complex assay.
Assay [6] concerns the target T1, Metabotropic glutamate receptor 2. The assay is described as follows: Effective concentration forskolin-stimulated cAMP formation in BHK cells expressing mGluR2 receptor. The class given is functional, cell-based.
Assay [7] shares this target. Put plainly: Concentration required for the half-maximal inhibition of cAMP formation in BHK cells expressing mGluR2. It counts as functional, cell-based. Background: Cyclic AMP is a second messenger, typically raised through Gs and lowered through Gi signalling.
Assay [8] shares this target. Put plainly: Effective concentration of compound against forskolin-stimulated cAMP formation in BHK cells expressing mGluR2 receptor. The class given is functional, cell-based.
Assay [9] shares this target. Put plainly: Concentration required for the half-maximal inhibition of cAMP formation in BHK cells expressing mGluR2. The class given is functional, cell-based.
Assay [10] has the same target. The assay is described as follows: Antagonistic activity against mGluR2 was determined. It counts as functional.
The target in assay [11] is Metabotropic glutamate receptor 1 (Homo sapiens, UniProt Q13255). The assay is described as follows: Binding affinity towards mGluR1a was determined.
Sequence of Metabotropic glutamate receptor 1 (Q13255 whole entry): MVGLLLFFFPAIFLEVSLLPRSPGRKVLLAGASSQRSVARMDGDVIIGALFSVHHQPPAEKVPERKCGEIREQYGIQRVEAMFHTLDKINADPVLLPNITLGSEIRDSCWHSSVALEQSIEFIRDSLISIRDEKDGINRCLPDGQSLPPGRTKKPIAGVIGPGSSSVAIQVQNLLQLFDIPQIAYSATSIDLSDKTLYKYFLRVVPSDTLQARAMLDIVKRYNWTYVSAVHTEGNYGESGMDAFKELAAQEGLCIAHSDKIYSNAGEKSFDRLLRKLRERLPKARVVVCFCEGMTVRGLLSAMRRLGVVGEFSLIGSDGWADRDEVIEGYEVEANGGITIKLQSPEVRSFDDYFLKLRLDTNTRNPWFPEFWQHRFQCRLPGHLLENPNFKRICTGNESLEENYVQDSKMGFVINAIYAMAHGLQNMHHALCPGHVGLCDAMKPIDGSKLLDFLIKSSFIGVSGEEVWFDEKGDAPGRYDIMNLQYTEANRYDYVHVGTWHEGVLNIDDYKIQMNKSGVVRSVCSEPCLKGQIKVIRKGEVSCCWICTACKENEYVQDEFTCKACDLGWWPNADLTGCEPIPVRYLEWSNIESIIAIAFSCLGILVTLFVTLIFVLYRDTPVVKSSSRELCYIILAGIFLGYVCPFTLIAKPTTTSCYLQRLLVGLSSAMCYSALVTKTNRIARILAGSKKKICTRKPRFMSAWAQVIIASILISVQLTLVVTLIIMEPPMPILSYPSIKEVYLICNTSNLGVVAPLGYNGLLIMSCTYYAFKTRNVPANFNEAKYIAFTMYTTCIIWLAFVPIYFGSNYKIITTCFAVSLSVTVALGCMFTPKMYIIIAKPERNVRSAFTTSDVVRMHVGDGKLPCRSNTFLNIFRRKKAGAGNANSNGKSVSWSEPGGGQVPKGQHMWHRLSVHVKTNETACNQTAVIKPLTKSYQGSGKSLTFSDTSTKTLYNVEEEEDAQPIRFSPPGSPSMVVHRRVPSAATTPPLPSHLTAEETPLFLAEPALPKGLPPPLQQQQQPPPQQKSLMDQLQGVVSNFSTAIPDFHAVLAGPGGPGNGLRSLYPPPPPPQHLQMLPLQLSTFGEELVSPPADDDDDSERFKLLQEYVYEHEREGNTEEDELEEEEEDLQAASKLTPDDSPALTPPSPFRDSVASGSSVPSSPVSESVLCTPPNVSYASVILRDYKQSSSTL

T1 sequence (Q14416 whole entry): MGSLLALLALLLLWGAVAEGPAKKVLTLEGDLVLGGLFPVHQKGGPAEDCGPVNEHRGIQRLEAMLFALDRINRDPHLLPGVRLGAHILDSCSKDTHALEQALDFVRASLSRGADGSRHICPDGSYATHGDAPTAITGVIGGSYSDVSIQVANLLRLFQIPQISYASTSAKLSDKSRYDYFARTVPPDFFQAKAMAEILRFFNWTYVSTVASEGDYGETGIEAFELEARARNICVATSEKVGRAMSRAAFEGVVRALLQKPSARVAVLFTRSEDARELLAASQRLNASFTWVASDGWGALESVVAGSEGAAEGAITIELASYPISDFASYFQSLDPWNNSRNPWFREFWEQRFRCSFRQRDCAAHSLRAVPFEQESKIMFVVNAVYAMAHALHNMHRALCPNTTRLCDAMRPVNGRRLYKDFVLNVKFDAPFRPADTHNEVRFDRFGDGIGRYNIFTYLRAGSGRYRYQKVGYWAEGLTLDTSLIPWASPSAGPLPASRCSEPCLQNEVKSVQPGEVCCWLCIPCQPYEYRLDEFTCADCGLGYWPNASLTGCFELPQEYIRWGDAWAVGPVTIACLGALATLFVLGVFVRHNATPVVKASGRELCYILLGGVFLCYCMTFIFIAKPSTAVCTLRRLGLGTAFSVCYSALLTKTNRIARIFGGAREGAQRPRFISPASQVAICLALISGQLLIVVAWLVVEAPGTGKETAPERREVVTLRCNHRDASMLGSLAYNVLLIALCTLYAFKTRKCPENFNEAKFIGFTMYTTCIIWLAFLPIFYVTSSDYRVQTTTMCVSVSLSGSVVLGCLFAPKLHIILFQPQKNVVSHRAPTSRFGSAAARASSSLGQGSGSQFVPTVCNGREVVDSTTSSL

The Ki is the dissociation constant of the complex between target and ligand, obtained from inhibition or displacement. A lower Ki goes with higher affinity. The IC50 is the point on the concentration scale where inhibition reaches its midpoint. A word on the EC50: it is the midpoint of the concentration-response curve. Read a low EC50 as a more potent agent. Regarding `N[C@H](C(=O)O)[C@@H]1[C@H](C(=O)O)[C@@H]1c1ccccc1`, the figures for the Ki (on Glutamate NMDA receptor; in assay [1]; in [5]) were greater than 200 µM, 155 µM and greater than 220 µM, respectively. The IC50 in assay [2] was greater than 300 µM; in assay [3], 270 µM; in assay [4], greater than 300 µM. In addition, in assay [6], the 50% effective concentration (EC50) is greater than 300 µM.
As to `N[C@H](C(=O)O)[C@@H]1[C@@H](C(=O)O)[C@H]1c1ccccc1`, the Ki at Glutamate NMDA receptor was 192 µM; in [1] it was 126 µM; in [5] it was greater than 220 µM. For the same compound, the figures for the IC50 in assay [2], in [3] and in assay [4] were greater than 300 µM, 7 µM and greater than 300 µM, respectively. This compound came in with an EC50 in assay [6] greater than 300 µM.
Regarding `N[C@H](C(=O)O)[C@H]1[C@@H](C(=O)O)[C@@H]1c1ccccc1`, the Ki was greater than 200 µM at Glutamate NMDA receptor, 144 µM in assay [1] and 141 µM in [5]. Further, the results for the half-maximal inhibitory concentration (IC50) in assay [2], in assay [3] and in assay [4] were greater than 300 µM, 213 µM and greater than 300 µM, respectively. The compound also yielded an EC50 in assay [6] greater than 300 µM.
Turning to `N[C@H](C(=O)O)[C@H]1[C@@H](C(=O)O)[C@H]1c1ccccc1`, the inhibition constant Ki on Glutamate NMDA receptor was greater than 200 µM; in [1], greater than 190 µM; in assay [5] it was greater than 220 µM. In addition, the figures for the IC50 in [2], in [3] and in assay [4] were greater than 300 µM, 233 µM and greater than 300 µM, respectively. The EC50 in assay [6] was greater than 300 µM.
Turning to `N[C@H](C(=O)O)[C@H]1[C@H](C(=O)O)[C@@H]1c1ccccc1`, the Ki on Glutamate NMDA receptor was 25 µM; in [1] it was greater than 190 µM; in assay [5], greater than 220 µM. Besides, the IC50 in assay [2] was greater than 300 µM; in [3], 85 µM; in assay [4], greater than 300 µM. The EC50 in [6] is greater than 300 µM.
Take `N[C@H](C(=O)O)[C@H]1[C@H](C(=O)O)[C@H]1c1ccccc1`: the Ki amounted to 107 µM on Glutamate NMDA receptor, 25 µM in [1] and 124 µM in assay [5]. In addition, the IC50 was 41 µM in [3], greater than 300 µM in [4] and greater than 300 µM in assay [7]. Also, in assay [6], the EC50 was greater than 300 µM.
For `N[C@@H](C(=O)O)[C@@H]1[C@@H](C(=O)O)[C@@H]1c1ccccc1`, the values for the Ki (at Glutamate NMDA receptor; in [1]; in [5]) were 193 µM, greater than 190 µM and 212 µM, respectively. The same compound returned a concentration for a half-maximal effect (EC50) in assay [8] greater than 300 µM. Moreover, the IC50 in assay [9], in assay [3] and in assay [4] was greater than 300 µM in each case.
Take `N[C@@H](C(=O)O)[C@@H]1[C@H](C(=O)O)[C@@H]1c1ccccc1`: the inhibition constant (Ki) was greater than 200 µM at Glutamate NMDA receptor, 122 µM in assay [1] and 251 µM in assay [5]. The IC50 was greater than 300 µM in assay [2], 143 µM in assay [3] and greater than 300 µM in assay [4]. For the same compound, the EC50 in assay [6] was greater than 300 µM.
Turning to `N[C@@H](C(=O)O)[C@@H]1[C@@H](C(=O)O)[C@H]1c1ccccc1`, the figures for the Ki (at Glutamate NMDA receptor; in [1]; in assay [5]) were 29 µM, greater than 190 µM and greater than 220 µM, respectively. The IC50 was greater than 300 µM in assay [2], 138 µM in assay [3] and greater than 300 µM in [4]. The EC50 in [6] was greater than 300 µM.
As for `N[C@@H](C(=O)O)[C@H]1[C@@H](C(=O)O)[C@@H]1c1ccccc1`, the results for the Ki (on Glutamate NMDA receptor; in assay [1]; in assay [5]) were 123 µM, 155 µM and 160 µM, respectively. Also, the IC50 in assay [2] is greater than 300 µM; in [3] it was 64 µM; in [4], greater than 300 µM. For the same compound, the EC50 in assay [6] is greater than 300 µM.
Turning to `N[C@@H](C(=O)O)[C@H]1[C@@H](C(=O)O)[C@H]1c1ccccc1`, the Ki at Glutamate NMDA receptor is greater than 200 µM; in [1], 117 µM; in assay [5] it was greater than 220 µM. The concentration for half-maximal inhibition (IC50) in [2] is greater than 300 µM; in assay [3], 32 µM; in assay [4], greater than 300 µM. Also, the half-maximal effective concentration (EC50) in assay [6] is greater than 300 µM.
As for `N[C@@H](C(=O)O)[C@H]1[C@H](C(=O)O)[C@@H]1c1ccccc1`, the results for the inhibition constant Ki (on Glutamate NMDA receptor; in assay [1]; in assay [5]) were greater than 200 µM, greater than 190 µM and greater than 300 µM, respectively. Besides, the IC50 is greater than 300 µM in [2], 23 µM in assay [3] and greater than 300 µM in assay [4]. Moreover, in assay [6], the EC50 was greater than 300 µM.
For `N[C@@H](C(=O)O)[C@H]1[C@H](C(=O)O)[C@H]1c1ccccc1`, the figures for the Ki (at Glutamate NMDA receptor; in [1]; in assay [5]) were 129 µM, 15 µM and 125 µM, respectively. Further, the IC50 in assay [3] and in assay [4] was greater than 300 µM throughout. In [6], this compound displayed an EC50 of 122 µM.
`CC(N)(C(=O)O)c1ccc(C(=O)O)cc1` (stereo not given): the IC50 in [10] turned out to be 50 µM. The affinity in assay [11] corresponds to a Ki of 50 µM.
On to `N[C@H](C(=O)O)[C@@H]1[C@@H](C(=O)O)[C@@H]1c1ccccc1`, for which the Ki was greater than 200 µM at Glutamate NMDA receptor, greater than 190 µM in assay [1] and greater than 220 µM in assay [5]. Also, the IC50 in [2] was 8 µM; in assay [3], greater than 300 µM; in assay [4], greater than 300 µM.
For the compound `N[C@@H](C(=O)O)[C@@H]1[C@H](C(=O)O)[C@H]1c1ccccc1` (stereo in doubt; 44), the inhibitory constant (Ki) at Glutamate NMDA receptor is greater than 200 µM; in assay [1], greater than 190 µM; in assay [5] it was greater than 220 µM. In addition, the IC50 in assay [2], in assay [3] and in assay [4] was greater than 300 µM throughout. This compound registered an EC50 in [6] greater than 300 µM.
As for `N[C@@H](C(=O)O)[C@@H]1[C@H](C(=O)O)[C@H]1c1ccccc1` (stereo in doubt; 47), the figures for the Ki in assay [1] and in assay [5] were 221 µM and 285 µM, respectively. Further, the values for the half-inhibitory concentration (IC50) in [2] (bhk) and in assay [3] were greater than 300 µM and 185 µM, respectively. This compound also gave a concentration giving a half-maximal response (EC50) in assay [6] (bhk) greater than 300 µM.
